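Tested at 5 concentrations; 48 h exposure; 96-well plates; endpoints linearly interpolated, else capped at highest concentration. GI50: concentration for 50% inhibition of growth. TGI: concentration producing complete growth inhibition.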 Where a SMILES comes first, the peptide text is derived from it. [ ]: non-standard residue; d: D form. The star is where a group is joined. NMeF = CN[C@@H](Cc1ccccc1)C(=O)O; NMeV = CN[C@H](C(=O)O)C(C)C; Boc = CC(C)(C)OC(=O)*; OBn = c1ccc(CO*)cc1
What was measured:
Test in all cases: DTP human tumour cell line panel, 48 h
HL-60(TB) leukemia = system: HL-60(TB) leukemia
SF-295 CNS = system: SF-295 CNS
UO-31 renal = system: UO-31 renal
SK-OV-3 ovarian = system: SK-OV-3 ovarian
786-0 renal = system: 786-0 renal
HS 578T breast = system: HS 578T breast
SR leukemia = system: SR leukemia
MALME-3M melanoma = system: MALME-3M melanoma
NCI-H522 lung = system: NCI-H522 lung
RPMI-8226 leukemia = system: RPMI-8226 leukemia

## COc1ccc2cc(Cn3cc[n+](Cc4ccc5ccccc5c4)c3)ccc2c1
HL-60(TB) leukemia
  GI50: 1.34 µM
  TGI: 3.89 µM
SF-295 CNS
  GI50: 4.95 µM
  TGI: 21.9 µM
UO-31 renal
  GI50: 12.7 µM
  TGI: 32.1 µM
SK-OV-3 ovarian
  GI50: 3.19 µM
  TGI: 12.6 µM
786-0 renal
  GI50: 4.72 µM
  TGI: 19.6 µM
HS 578T breast
  GI50: 2.32 µM
  TGI: 9.92 µM
SR leukemia
  GI50: 1.68 µM
  TGI: 4.27 µM
MALME-3M melanoma
  GI50: 1.53 µM
  TGI: 4.03 µM
NCI-H522 lung
  GI50: 1.53 µM
  TGI: 4.68 µM
RPMI-8226 leukemia
  GI50: 1.33 µM
  TGI: 3.65 µM

## CCCC(=O)Nc1ccc2c(c1)CN1C(=O)c3ccccc3C1=N2
HL-60(TB) leukemia
  TGI: > 100 µM
SF-295 CNS
  TGI: > 100 µM
UO-31 renal
  TGI: > 100 µM
SK-OV-3 ovarian
  TGI: > 100 µM
786-0 renal
  TGI: > 100 µM
HS 578T breast
  TGI: > 100 µM
SR leukemia
  TGI: > 100 µM
MALME-3M melanoma
  TGI: > 100 µM
NCI-H522 lung
  TGI: > 100 µM
RPMI-8226 leukemia
  TGI: > 100 µM

## Cc1nn(-c2ccccc2)c2nc3c(nc12)C1=NCCN1C(c1ccc(Cl)cc1)N3 (stereo unspecified)
HL-60(TB) leukemia
  GI50: 1.87 µM
  TGI: 4.4 µM
SF-295 CNS
  GI50: 2.56 µM
  TGI: 8.24 µM
UO-31 renal
  GI50: 7.84 µM
  TGI: 21.5 µM
SK-OV-3 ovarian
  GI50: 7.9 µM
  TGI: 19.4 µM
786-0 renal
  GI50: 2.99 µM
  TGI: 8.9 µM
HS 578T breast
  GI50: 3.1 µM
  TGI: 12.8 µM
SR leukemia
  GI50: 2.48 µM
  TGI: 6.32 µM
MALME-3M melanoma
  GI50: 2.18 µM
  TGI: 4.12 µM
NCI-H522 lung
  GI50: 2.83 µM
  TGI: 7.14 µM
RPMI-8226 leukemia
  GI50: 2.22 µM
  TGI: 5.28 µM

## COc1ccc2c(c1)/C(=C\c1c(Cl)n(C)c3ccccc13)C(=O)N2
HL-60(TB) leukemia
  GI50: 0.182 µM
  TGI: 2.65 µM
SF-295 CNS
  GI50: 0.981 µM
  TGI: 6.66 µM
UO-31 renal
  GI50: 3.71 µM
  TGI: 20.6 µM
SK-OV-3 ovarian
  GI50: 0.86 µM
  TGI: 14.5 µM
786-0 renal
  GI50: 2.18 µM
  TGI: 12.5 µM
HS 578T breast
  GI50: 1.44 µM
  TGI: 8.12 µM
SR leukemia
  GI50: 0.157 µM
  TGI: 0.605 µM
MALME-3M melanoma
  GI50: 4.59 µM
  TGI: 16.7 µM
NCI-H522 lung
  GI50: 0.726 µM
  TGI: 7.14 µM
RPMI-8226 leukemia
  GI50: 1.76 µM
  TGI: > 34.3 µM

## CSC1=Nc2c(c(C)c(C)n2COC(CO)CO)C2=NC(=O)CC(C)N12 (stereo unspecified)
HL-60(TB) leukemia
  GI50: 0.0864 µM
  TGI: > 100 µM
SF-295 CNS
  GI50: > 100 µM
  TGI: > 100 µM
UO-31 renal
  GI50: > 100 µM
  TGI: > 100 µM
SK-OV-3 ovarian
  GI50: > 100 µM
  TGI: > 100 µM
786-0 renal
  GI50: > 100 µM
  TGI: > 100 µM
HS 578T breast
  GI50: > 100 µM
  TGI: > 100 µM
SR leukemia
  GI50: > 100 µM
  TGI: > 100 µM
MALME-3M melanoma
  GI50: > 100 µM
  TGI: > 100 µM
NCI-H522 lung
  GI50: > 100 µM
  TGI: > 100 µM
RPMI-8226 leukemia
  GI50: > 100 µM
  TGI: > 100 µM

## CC(C)n1c(=O)n(C)c2cnc3cc(F)c(-c4ccc(OCCCN5CCCCC5)nc4)cc3c21
HL-60(TB) leukemia
  GI50: 12.7 µM
  TGI: 38.2 µM
SF-295 CNS
  GI50: 3.99 µM
  TGI: 16.4 µM
UO-31 renal
  GI50: 3.74 µM
  TGI: 16.2 µM
SK-OV-3 ovarian
  GI50: 10.8 µM
  TGI: 73.8 µM
786-0 renal
  GI50: 12.9 µM
  TGI: 37.9 µM
HS 578T breast
  GI50: 3.33 µM
  TGI: 18.1 µM
SR leukemia
  GI50: 5.76 µM
  TGI: 32.2 µM
MALME-3M melanoma
  GI50: 10.6 µM
  TGI: 23.4 µM
NCI-H522 lung
  GI50: 18.6 µM
  TGI: 49.6 µM
RPMI-8226 leukemia
  GI50: 3.22 µM
  TGI: 14.6 µM

## CS(=O)(=O)c1ccc(Oc2cc(F)cc(C#N)c2)c2c1[C@H](O)C(F)(F)C2
HL-60(TB) leukemia
  GI50: > 100 µM
  TGI: > 100 µM
SF-295 CNS
  GI50: > 100 µM
  TGI: > 100 µM
UO-31 renal
  GI50: > 100 µM
  TGI: > 100 µM
SK-OV-3 ovarian
  GI50: > 100 µM
  TGI: > 100 µM
786-0 renal
  GI50: > 100 µM
  TGI: > 100 µM
HS 578T breast
  GI50: > 100 µM
  TGI: > 100 µM
SR leukemia
  GI50: > 100 µM
  TGI: > 100 µM
MALME-3M melanoma
  GI50: > 100 µM
  TGI: > 100 µM
NCI-H522 lung
  GI50: > 100 µM
  TGI: > 100 µM
RPMI-8226 leukemia
  GI50: > 100 µM
  TGI: > 100 µM

## S=C(c1ccc2c(c1)OCO2)N1CCN(c2cccc(Cl)c2)CC1
HL-60(TB) leukemia
  GI50: 0.195 µM
  TGI: 0.642 µM
SF-295 CNS
  GI50: 0.387 µM
  TGI: > 40.9 µM
UO-31 renal
  GI50: 4.3 µM
  TGI: > 72.5 µM
SK-OV-3 ovarian
  GI50: 2.91 µM
  TGI: > 93.9 µM
786-0 renal
  GI50: 1.22 µM
  TGI: > 59.6 µM
HS 578T breast
  GI50: 0.391 µM
  TGI: 3.54 µM
SR leukemia
  GI50: 0.382 µM
MALME-3M melanoma
  GI50: 0.478 µM
  TGI: > 100 µM
NCI-H522 lung
  GI50: 0.382 µM
RPMI-8226 leukemia
  GI50: 0.598 µM
  TGI: > 100 µM

## COc1cc(-n2cnc(-c3ccc(Cl)cc3)c2)cc(OC)c1OC
HL-60(TB) leukemia
  GI50: 15.3 µM
  TGI: 35.4 µM
SF-295 CNS
  GI50: 17.6 µM
  TGI: 38.1 µM
UO-31 renal
  GI50: 15.6 µM
  TGI: 40.5 µM
SK-OV-3 ovarian
  GI50: 21.2 µM
  TGI: 52.2 µM
786-0 renal
  GI50: > 100 µM
  TGI: > 100 µM
HS 578T breast
  GI50: 49.2 µM
  TGI: > 100 µM
SR leukemia
  GI50: 25.4 µM
  TGI: 62.2 µM
MALME-3M melanoma
  GI50: 16.1 µM
  TGI: 32.9 µM
NCI-H522 lung
  GI50: 15.6 µM
  TGI: 34.3 µM
RPMI-8226 leukemia
  GI50: 14.7 µM
  TGI: 32.2 µM

## CCOC(=O)c1c(Cl)c2c(n1Cc1cccc(OC)c1)-c1oncc1CC2
HL-60(TB) leukemia
  GI50: 0.557 µM
  TGI: 5.81 µM
SF-295 CNS
  GI50: 0.658 µM
  TGI: 15.9 µM
UO-31 renal
  GI50: 3.37 µM
  TGI: 78.6 µM
SK-OV-3 ovarian
  GI50: 3.36 µM
  TGI: > 100 µM
786-0 renal
  GI50: 4.5 µM
  TGI: 52.7 µM
HS 578T breast
  GI50: 1.21 µM
  TGI: 9.45 µM
SR leukemia
  GI50: 0.444 µM
  TGI: 24.1 µM
MALME-3M melanoma
  GI50: 0.646 µM
  TGI: 96.2 µM
NCI-H522 lung
  GI50: 0.351 µM
  TGI: 6.73 µM
RPMI-8226 leukemia
  GI50: 5.15 µM
  TGI: > 100 µM

## O=C(Nc1ccc(OCc2nnc(-c3ccccc3)o2)c(F)c1)Nc1ccc(Cl)c(C(F)(F)F)c1
HL-60(TB) leukemia
  GI50: 1.99 µM
  TGI: 4.61 µM
SF-295 CNS
  GI50: 2.18 µM
  TGI: 6.83 µM
UO-31 renal
  GI50: 1.49 µM
  TGI: 2.93 µM
SK-OV-3 ovarian
  GI50: 3.17 µM
  TGI: 9.46 µM
786-0 renal
  GI50: 2.11 µM
  TGI: 4.21 µM
HS 578T breast
  GI50: 2 µM
  TGI: 7.09 µM
SR leukemia
  GI50: 1.37 µM
  TGI: 4.31 µM
MALME-3M melanoma
  GI50: 1.78 µM
  TGI: 4.98 µM
NCI-H522 lung
  GI50: 1.51 µM
  TGI: 4.87 µM
RPMI-8226 leukemia
  GI50: 1.11 µM
  TGI: 3.57 µM

## O=C1/C(=C/c2ccccc2F)CN(C(=O)C(Cl)Cl)C/C1=C\c1ccccc1F
HL-60(TB) leukemia
  GI50: 0.363 µM
  TGI: 2.25 µM
SF-295 CNS
  GI50: 0.391 µM
  TGI: 1.52 µM
UO-31 renal
  GI50: 0.44 µM
  TGI: 1.67 µM
SK-OV-3 ovarian
  GI50: 1.65 µM
  TGI: 3.28 µM
786-0 renal
  GI50: 0.666 µM
  TGI: 2 µM
HS 578T breast
  GI50: 0.985 µM
  TGI: 5.51 µM
SR leukemia
  GI50: 0.0665 µM
MALME-3M melanoma
  GI50: 0.599 µM
  TGI: 1.92 µM
NCI-H522 lung
  GI50: 0.281 µM
  TGI: 1.06 µM
RPMI-8226 leukemia
  GI50: 0.0831 µM
  TGI: 0.935 µM

## CC(C)[C@@H](C(=O)N1CCC[C@H]1C(=O)OCc1ccccc1)N(C)C(=O)[C@H](C(C)C)N(C)C(=O)[C@H](Cc1ccccc1)N(C)C(=O)[C@H](NC(=O)OC(C)(C)C)C(C)C (Boc-[dV][NMeF][NMeV][NMeV]P-OBn)
HL-60(TB) leukemia
  GI50: 21.9 µM
  TGI: > 100 µM
SF-295 CNS
  GI50: > 100 µM
  TGI: > 100 µM
UO-31 renal
  TGI: > 100 µM
SK-OV-3 ovarian
  TGI: > 100 µM
786-0 renal
  GI50: 39.5 µM
  TGI: > 100 µM
HS 578T breast
  TGI: > 50 µM
SR leukemia
  TGI: > 100 µM
MALME-3M melanoma
  TGI: > 100 µM
NCI-H522 lung
  TGI: > 50 µM
RPMI-8226 leukemia
  GI50: 4.6 µM
  TGI: > 100 µM

Reference: PubChem BioAssay (NCI)
